Legend:
previously treated CLL = conditions: Phase 1, monotherapy; cited from earlier work
[1] = in vivo; cited from earlier work
[2] = system: human platelet-mediated thrombosis; test: in vivo human thrombus formation in the VWF HA1 mice model (laser injury); conditions: human platelets preincubated with BTK inhibitor, laser-induced injury
Description: Purified human platelets were preincubated with various concentrations of the BTK inhibitors (0.1 μM, 0.5 μM, or 1 μM) or DMSO and then administered to VWF HA1 mice, followed by laser-induced thrombus formation.
The objective of this study was to evaluate in vivo thrombus formation in the presence of BTK inhibitors.

GPVI = GPVI platelet aggregation (Convulxin-induced); type: cell-based, human; conditions: for inhibition of GPVI platelet aggregation: human platelets, CVX-induced
Description: GPVI platelet aggregation was measured for Formula (XVIII) and Formula XX-A (ibrutinib). Blood was obtained from untreated humans, and platelets were purified from […] by centrifugation. Cells were resuspended to a final concentration of 350,000/μL in buffer containing 145 mmol/L NaCl, 10 mmol/L HEPES, 0.5 mmol/L Na2HPO4, 5 mmol/L KCl, 2 mmol/L MgCl2, 1 mmol/L CaCl2, and 0.1% glucose, at pH 7.4. Stock solutions of […] were prepared on the day of experimentation and added to platelet suspensions 5 minutes (37° C., 1200 rpm) before the induction of aggregation. Aggregation was assessed with a Chronolog Lumi-Aggregometer (model 540 VS; Chronolog, Havertown, Pa.) and permitted to proceed for 6 minutes after the addition of agonist. The results are reported as maximum percent change in light transmittance from baseline with platelet buffer used as a reference.
In FIG. 97, the results of CVX-induced (250 ng/mL) human platelet aggregation results before and 15 minutes after administration of the BTK inhibitors to 6 healthy individuals are shown.

NK cells [3] = test: rituximab ADCC mediated by NK cells; type: cell-based
Excerpt: H. E. Kohrt, et al., Blood 2014, 123, 1957-60.

[4] = system: signals through the B cell receptor (CD69 on gated CD19+ B cells); test: Whole blood inhibition of B cell receptor signals (anti-IgD induced CD69 on CD19+ B cells, flow cytometry); type: cell-based; conditions: whole blood of four healthy donors, 2 h incubation, anti-human IgD 10 μg/mL 18 h
Description: Blood from four healthy donors was incubated for 2 hours with the compounds shown over a concentration range, and then stimulated with anti-human IgD [10 μg/mL] for 18 hours. The mean fluorescent intensity (MFI) of CD69 (and CD86, data not shown) on gated CD19+ B cells was measured by flow cytometry.

B cell lymphoma = test: veterinary clinical trial in canine lymphoma; type: in vivo, dog; conditions: companion dogs with B cell lymphoma
NK cells [5] = test: NK cell degranulation/ADCC whole blood assay with obinutuzumab; type: cell-based, human; conditions: whole blood pretreated 1 hour, MEC-1 cells opsonised with obinutuzumab 1 μg/mL, 4 hours, n=3
Description: Degranulation in whole blood was performed as follows. […] Exponentially growing cells were used. On the day of the experiment, 8 mL of blood was drawn from a normal volunteer into a test tube containing desirudin to obtain a final concentration of 50 μg/mL. A white blood cell (WBC) count of whole blood was performed. […] 170 μL aliquots of unmanipulated whole blood were incubated with 10 μL BTK inhibitors or X-VIVO 15 medium for one hour into a plate. […] The samples were placed in a 5% CO2 incubator for 4 hours at 37° C.
After 4 hours, the samples were mixed gently and 50 μL aliquots were removed from each well and placed in fluorescence-activated cell sorting (FACS) test tubes. A 20 μL aliquot of anti-CD56-APC antibody and anti-CD107a-PE antibody was added. The samples were incubated for 20 minutes at room temperature in the dark. An aliquot of 2 mL of FACS lysing solution (BD Biosceinces) was added. The samples were again incubated for 5 minutes, and then centrifuged at 2000 rpm for 5 minutes. Supernatant was discarded and the cell pellet was resuspended in 500 μL of PBS. The samples were analyzed on the flow cytometer for CD107a^+ NK cells (CD56^+).

BCR = test: in vivo potency: BCR activation markers CD69 and CD86 after IgM stimulation; parameters: species or system mouse; conditions: mice gavaged, 3 hours post-dose, BCR stimulated with IgM, flow cytometry
Description: Mice were gavaged at increasing drug concentration and sacrificed at one time point (3 hours post-dose). BCR is stimulated with IgM and the expression of activation markers CD69 and CD86 are monitored by flow cytometry to determine EC50values.
CD86 and CD69 are cell surface proteins that are BCR activation markers. […] BCR was stimulated with IgM and the expression of activation marker CD69 and CD86 are monitored by flow cytometry and to determine EC50 values.

CYP3A4 = CYP3A4 (Homo sapiens, UniProt P08684); test: In vitro loss of parent drug as catalyzed by CYPs; nonclinical CYP interaction studies; type: in vitro ADME
CYP3A4, sequence (P08684 whole entry): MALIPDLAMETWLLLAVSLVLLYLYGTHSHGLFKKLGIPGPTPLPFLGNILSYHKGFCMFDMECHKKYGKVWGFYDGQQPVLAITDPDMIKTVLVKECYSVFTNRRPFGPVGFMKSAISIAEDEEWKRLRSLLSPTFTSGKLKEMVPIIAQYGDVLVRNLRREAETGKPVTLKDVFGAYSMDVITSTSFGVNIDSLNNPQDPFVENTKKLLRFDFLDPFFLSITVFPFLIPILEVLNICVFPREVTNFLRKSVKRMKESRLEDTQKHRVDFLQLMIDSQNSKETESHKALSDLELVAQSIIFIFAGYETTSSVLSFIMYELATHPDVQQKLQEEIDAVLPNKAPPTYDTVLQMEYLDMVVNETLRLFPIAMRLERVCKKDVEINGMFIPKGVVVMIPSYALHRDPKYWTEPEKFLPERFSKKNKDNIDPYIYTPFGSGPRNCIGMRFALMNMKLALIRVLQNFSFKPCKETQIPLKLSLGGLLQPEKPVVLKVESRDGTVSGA

[6] = system: mouse, rat, dog, rabbit, monkey, and human hepatocytes; test: In vitro metabolism studies in hepatocytes with 14C-labeled compound; type: in vitro ADME
[7] = Glutathione binding and depletion in vitro; type: in vitro ADME
[8] = system: NK cells and monocytic MDSC subsets; test: Flow cytometry of peripheral blood cell subsets in CLL patients, predose vs 28 days; type: in vivo, human; conditions: patients with falling ALC counts; after 28 days of dosing
Description: PBMCs were stained with monoclonal antibodies conjugated to fluorescent tags (flourochromes) to identify cell subsets via flow cytometry. Non-viable cells were excluded from the analysis using the dye 7-aminoactinomycin D (7-AAD). To produce the metric of percent change, the following steps were taken. First, each cell subset was defined by hierarchical flow cytometry gating. Then, the change in frequency (between day 1 and day 28) was calculated for each cell subset. MDSC subsets were measured as a % of all myeloid cells. T cell subsets were measured as a % of all CD3^+ cells, and NK cells were measured as a % of all live CD45^+ cells. […] A cycle is 28 days. A trend is observed wherein patients with decreasing ALC % had increasing MDSC (monocytic) %. This may include patients who had quickly resolving lymphocytosis and those with no initial lymphocytosis. […] This may include patients who had quickly resolving lymphocytosis and those having no initial lymphocytosis. The effects in FIG. 107 to FIG. 110 are observed in multiple cohorts, at doses including 100 mg BID, 200 mg QD, and 400 mg QD. In FIG. 111 and FIG. 112, the effects on NK cells and MDSC cells are compared to a number of other markers versus % change in ALC at C1D28 and C2D28. These other markers include CD4+ T cells, CD8+ T cells, CD4+/CD8+ T cell ratio, NK-T cells, PD-1+ CD4+ T cells, and PD-1+ CD8+ T cells. […]

BTK = target: T1, BTK (Mus musculus, UniProt P35991); test: Molecular probe assay of irreversible BTK occupancy in MDSCs from tumor bearing PDA mice; type: in vivo; conditions: 15 mg/kg BID, Day 8, 4 hours post dose (N=5)
T1 construct: MDSCs were purified from tumor bearing PDA mice; endogenous in cells; host or cells: granulocytic and monocytic MDSCs from tumor bearing PDA mice
T1 sequence (P35991 whole entry): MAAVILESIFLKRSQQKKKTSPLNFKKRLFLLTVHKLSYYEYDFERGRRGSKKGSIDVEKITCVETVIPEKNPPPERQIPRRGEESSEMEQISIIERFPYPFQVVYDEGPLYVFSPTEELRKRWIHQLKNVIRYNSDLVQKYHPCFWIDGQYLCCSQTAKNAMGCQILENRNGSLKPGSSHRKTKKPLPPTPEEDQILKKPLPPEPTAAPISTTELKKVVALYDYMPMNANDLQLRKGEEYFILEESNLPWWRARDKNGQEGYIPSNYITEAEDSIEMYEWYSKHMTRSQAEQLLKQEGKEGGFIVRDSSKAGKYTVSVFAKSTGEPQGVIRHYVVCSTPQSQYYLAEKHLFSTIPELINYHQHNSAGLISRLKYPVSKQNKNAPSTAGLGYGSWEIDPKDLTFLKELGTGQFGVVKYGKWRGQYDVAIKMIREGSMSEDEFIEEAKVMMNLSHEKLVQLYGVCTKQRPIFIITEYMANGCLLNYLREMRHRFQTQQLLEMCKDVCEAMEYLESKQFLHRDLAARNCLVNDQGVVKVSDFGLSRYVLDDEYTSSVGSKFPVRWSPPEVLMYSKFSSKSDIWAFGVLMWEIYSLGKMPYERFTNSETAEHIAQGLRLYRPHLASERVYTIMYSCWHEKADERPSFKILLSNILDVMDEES
Excerpt: A molecular probe assay was used to calculate the percent irreversible occupancy of total BTK.

EGFR = EGFR (Homo sapiens, UniProt P00533); test: in vitro EGFR phosphorylation in A431 cells; conditions: 10 μM, A431 human epidermoid cancer cell line
EGFR, sequence (P00533 25-1210): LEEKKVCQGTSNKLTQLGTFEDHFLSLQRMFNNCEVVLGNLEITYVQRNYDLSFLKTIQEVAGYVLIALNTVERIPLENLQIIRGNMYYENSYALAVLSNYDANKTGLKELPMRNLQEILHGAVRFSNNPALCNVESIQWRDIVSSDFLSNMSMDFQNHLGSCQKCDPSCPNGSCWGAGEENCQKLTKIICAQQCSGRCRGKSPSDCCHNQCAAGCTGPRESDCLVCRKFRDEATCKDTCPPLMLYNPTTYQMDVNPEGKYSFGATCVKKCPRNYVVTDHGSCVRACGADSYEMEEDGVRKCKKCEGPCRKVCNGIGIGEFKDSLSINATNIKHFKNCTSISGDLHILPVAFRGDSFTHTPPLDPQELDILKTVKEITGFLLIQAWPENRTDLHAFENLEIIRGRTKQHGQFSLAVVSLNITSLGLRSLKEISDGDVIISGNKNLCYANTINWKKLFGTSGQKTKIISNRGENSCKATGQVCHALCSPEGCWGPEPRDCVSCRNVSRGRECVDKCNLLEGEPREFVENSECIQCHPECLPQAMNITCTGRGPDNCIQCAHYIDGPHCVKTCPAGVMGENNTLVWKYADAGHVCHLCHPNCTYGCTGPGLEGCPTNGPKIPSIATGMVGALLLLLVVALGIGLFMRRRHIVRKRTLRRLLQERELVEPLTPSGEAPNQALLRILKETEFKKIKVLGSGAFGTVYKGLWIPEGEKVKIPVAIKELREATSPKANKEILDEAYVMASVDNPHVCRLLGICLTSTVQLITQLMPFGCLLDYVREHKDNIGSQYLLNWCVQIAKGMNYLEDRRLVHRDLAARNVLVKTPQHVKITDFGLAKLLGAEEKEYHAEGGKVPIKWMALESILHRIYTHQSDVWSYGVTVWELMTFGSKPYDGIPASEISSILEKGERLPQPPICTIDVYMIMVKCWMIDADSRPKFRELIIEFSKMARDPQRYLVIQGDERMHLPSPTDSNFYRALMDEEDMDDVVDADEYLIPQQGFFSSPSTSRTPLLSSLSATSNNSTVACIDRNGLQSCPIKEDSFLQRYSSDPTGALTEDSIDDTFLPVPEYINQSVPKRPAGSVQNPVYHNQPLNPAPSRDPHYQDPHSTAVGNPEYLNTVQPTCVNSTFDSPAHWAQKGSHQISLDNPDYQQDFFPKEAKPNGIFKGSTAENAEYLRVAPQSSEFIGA

[9] = study of respiratory function (GLP safety pharmacology); conditions: rats, doses through 300 mg/kg (the highest dose level)
[10] = functional observation battery (GLP safety pharmacology); conditions: rats, doses through 300 mg/kg (the highest dose level)

obinutuzumab: type II glycoengineered CD20 monoclonal antibody
MRD-negative complete response, number (previously treated CLL): 1
Response rate (previously treated CLL): 62%
Grade 3 IRRs [1]: 15%
Grade 3 reactions among hypotension cases [1]: 25%
Grade 4 IRRs [1]: no Grade 4
IRR cases developing symptoms of hypotension [1]: 60%
Patients developing IRR [1]: 95%
Patients experiencing IRRs [1]: all patients
Patients experiencing all grade AE [1]: 100%

C=CC(=O)Nc1cccc(Nc2nc(Nc3ccc(OCCOC)cc3)ncc2F)c1 [Formula (XXVII), N-(3-((5-fluoro-2-((4-(2-methoxyethoxy)phenyl)amino)pyrimidin-4-yl)amino)phenyl)acrylamide]
effect on human platelet-mediated thrombus formation [2]: effect similar to Formula XX-A (ibrutinib)

C=CC(=O)N1CCC[C@@H](n2nc(-c3ccc(Oc4ccccc4)cc3)c3c(N)ncnc32)C1 [ibrutinib, 1-[(3R)-3-[4-amino-3-(4-phenoxyphenyl)-1H-pyrazolo[3,4-d]pyrimidin-1-yl]piperidin-1-yl]prop-2-en-1-one]
inhibition of GPVI platelet aggregation (GPVI): significantly inhibits GPVI platelet aggregation
antagonism of rituximab ADCC effects mediated by NK cells (NK cells [3]): undesirably antagonizes rituximab ADCC effects

C=CC(=O)Nc1cccc(Nc2nc(Nc3ccc(OCCOC)cc3)ncc2F)c1 [CC-292]
EC50 [4]: 121 nM

CC#CC(=O)N1CCC[C@H]1c1nc(-c2ccc(C(=O)Nc3ccccn3)cc2)c2c(N)nccn12 [Formula (XVIII), (S)-4-(8-amino-3-(1-(but-2-ynoyl)pyrrolidin-2-yl)imidazo[1,5-a]pyrazin-1-yl)-N-(pyridin-2-yl)benzamide]
IC50 (GPVI; Platelet, purified human platelets, Convulxin (CVX)): 1150 nM
inhibition of GPVI platelet aggregation (GPVI): does not
complete responses (CR) (B cell lymphoma): not observed
effect on percentage of CD56+/CD107a+ NK cells (obinutuzumab-stimulated NK cell degranulation) (NK cells [5]): minimal effect
antagonism of rituximab ADCC effects mediated by NK cells (NK cells [3]): does not antagonize rituximab ADCC effects
in vivo potency at inhibiting expression of activation markers CD69 and CD86, versus ibrutinib (BCR): more potent
Metabolism by CYPs (loss of parent drug) (CYP3A4; in vitro): metabolized by CYP3A4
Potential for clinical drug-drug interactions through CYP substrates (CYP3A4; nonclinical CYP interaction studies): very unlikely to cause clinical drug-drug interactions
Metabolites formed in hepatocytes ([6]; 14C-labeled compound, mouse, rat, dog, rabbit, monkey, human hepatocytes): two mono-oxidized metabolites and a glutathione conjugate
Unique human metabolite ([6]; hepatocytes): No unique human metabolite was identified
Glutathione binding / depletion [7]: binds to glutathione but does not deplete glutathione
NK cells and monocytic MDSC subsets in peripheral blood [8]: increase in frequency
Irreversible occupancy of total BTK in granulocytic and monocytic MDSCs (BTK): Complete BTK occupancy
inhibition of in vitro EGFR phosphorylation (EGFR): no inhibition
respiratory function [9]: no treatment-related adverse effects
neurobehavioral effects or body temperature [10]: no adverse effects
